Bounds are passed on as bounds.

For assay [1], the system named is Shh Light II. In words: Inhibition of Shh signaling in mouse Shh-light2 cells by Gli-dependent firefly luciferase reporter gene assay. In kind it is functional, cell-based. In general terms: In a reporter assay the amount or activity of a reporter protein is the signal.
Assay [2] deals with T1, Protein smoothened (Homo sapiens, UniProt Q99835). The experiment in a line: Displacement of Bodipy-labelled cyclopamine from Smo expressed in COS-1 cells in presence of 2% FBS after 4 to 6 hrs by FACS flow cytometric analysis. It counts as cell-based.
Assay [3] addresses T1, Protein smoothened. The experiment in a line: Inhibition of Bodipy-labelled cyclopamine binding to Smo expressed in COS-1 cells in presence of 20% NHS after 4 to 6 hrs by FACS flow cytometric analysis. It counts as cell-based. Background: Flow cytometry measures light scatter and fluorescence of single cells or particles in a stream.

T1 sequence (Q99835 whole entry): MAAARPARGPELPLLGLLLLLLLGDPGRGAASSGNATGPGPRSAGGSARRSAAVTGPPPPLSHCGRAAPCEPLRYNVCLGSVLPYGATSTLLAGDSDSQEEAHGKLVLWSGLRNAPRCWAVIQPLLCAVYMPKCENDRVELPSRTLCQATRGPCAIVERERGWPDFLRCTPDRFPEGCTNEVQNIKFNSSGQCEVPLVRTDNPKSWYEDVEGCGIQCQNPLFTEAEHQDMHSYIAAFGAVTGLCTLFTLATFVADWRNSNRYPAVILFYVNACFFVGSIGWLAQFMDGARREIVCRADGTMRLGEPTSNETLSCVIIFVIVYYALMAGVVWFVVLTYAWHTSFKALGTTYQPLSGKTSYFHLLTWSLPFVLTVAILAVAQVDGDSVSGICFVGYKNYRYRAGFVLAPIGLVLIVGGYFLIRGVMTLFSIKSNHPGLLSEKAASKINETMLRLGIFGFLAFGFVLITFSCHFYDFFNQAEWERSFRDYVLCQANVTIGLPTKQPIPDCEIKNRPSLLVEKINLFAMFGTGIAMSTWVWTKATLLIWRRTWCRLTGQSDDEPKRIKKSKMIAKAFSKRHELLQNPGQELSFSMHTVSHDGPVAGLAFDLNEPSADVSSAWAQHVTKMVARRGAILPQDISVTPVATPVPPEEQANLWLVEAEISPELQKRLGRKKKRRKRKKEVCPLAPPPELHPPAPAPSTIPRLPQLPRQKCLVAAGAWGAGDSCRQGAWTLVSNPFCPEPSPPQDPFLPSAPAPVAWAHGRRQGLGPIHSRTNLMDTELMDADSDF

The IC50 is the concentration that gives 50% inhibition. As for `O=C(OC1CCCCC1)N1CCC(c2nc(-c3ccc4ccccc4n3)no2)CC1`, the concentration for half-maximal inhibition (IC50) in assay [1] worked out at 580 nM; in assay [2], 280 nM.

Take `COc1ccccc1NC(=O)N1CCC(c2nc(-c3ncccn3)no2)CC1`: the IC50 in assay [2] was greater than 2500 nM.

As for `COc1ccc2nc(-c3noc(C4CCN(C(=O)Nc5ccccc5Cl)CC4)n3)ccc2c1`, in assay [2], the IC50 was 1800 nM.

As for `O=C(CC1CCCCCC1)N1CCC(c2nc(-c3ccc4ccccc4n3)no2)CC1`, the 50% inhibitory concentration (IC50) in assay [1] was found to be 840 nM; in assay [2], 1000 nM.

Turning to `O=C(Nc1cccnc1Cl)N1CCC(c2nc(-c3ccc4ccccc4n3)no2)CC1`, the half-maximal inhibitory concentration (IC50) in assay [1] is 1600 nM; in assay [2], 1500 nM.

With `COc1ccccc1NC(=O)N1CCC(c2nc(-c3cc4ccccc4cn3)no2)CC1`, the IC50 in assay [2] is 750 nM.

For `O=C(Nc1cnccc1Cl)N1CCC(c2nc(-c3ccc4ccccc4n3)no2)CC1`, the values for the IC50 in assay [1] and in assay [2] were 2000 nM and 1100 nM, respectively.

In the case of `N#Cc1ccc(NC(=O)N2CCC(c3nc(-c4ccc5ccccc5n4)no3)CC2)c(Cl)c1`, in assay [2], the concentration for half-maximal inhibition (IC50) was 1900 nM.

Turning to `COc1ccccc1NC(=O)N1CCC(c2nc(-c3cnccn3)no2)CC1`, the IC50 in assay [2] is greater than 2500 nM.

As for `CC(C)c1ccccc1NC(=O)N1CCC(c2nc(-c3ccc4ccccc4n3)no2)CC1`, the IC50 in assay [1] was 480 nM; in assay [2] it was 350 nM.

For the molecule `O=C(Nc1ccccc1Cl)N1CCC(c2nc(-c3cnc4ccccc4n3)no2)CC1`, the 50% inhibitory concentration (IC50) in assay [2] turned out to be 1100 nM.

Take `O=C(NC1CC[S+]([O-])CC1)N1CCC(c2nc(-c3ccc4ccccc4n3)no2)CC1` (configuration not stated): the IC50 turned out to be 850 nM in assay [1], 1800 nM in assay [2] and 4800 nM in assay [3].

For `O=C(Nc1ncccc1Cl)N1CCC(c2nc(-c3ccc4ccccc4n3)no2)CC1`, the IC50 in assay [1] was 2800 nM; in assay [2], greater than 2500 nM.

`O=C(Nc1ccccc1)N1CCC(c2nc(-c3ccc4ccccc4n3)no2)CC1`: the IC50 in assay [2] worked out at 480 nM.

For `COc1ccccc1NC(=O)N1CCC(c2nc(-c3ccc4ccccc4n3)no2)CC1`, the half-maximal inhibitory concentration (IC50) in assay [1] stood at 410 nM; in assay [2] it was 180 nM.

With `N#Cc1ccccc1NC(=O)N1CCC(c2nc(-c3ccc4ccccc4n3)no2)CC1`, the IC50 amounted to 190 nM in assay [1] and 490 nM in assay [2].

For `COc1cccc2nc(-c3noc(C4CCN(C(=O)Nc5ccccc5Cl)CC4)n3)ccc12`, the 50% inhibitory concentration (IC50) in assay [2] and in assay [3] was greater than 2500 nM each time.

For the molecule `O=C(Nc1ccccc1Cl)N1CCC(c2nc(-c3ncccn3)no2)CC1`, in assay [2], the IC50 is greater than 2500 nM.

Regarding `COc1ccccc1NC(=O)N1CCC(c2nc(-c3cccnc3)no2)CC1`, the half-maximal inhibitory concentration (IC50) in assay [2] is greater than 2500 nM.

Take `COc1cccc2ccc(-c3noc(C4CCN(C(=O)Nc5ccccc5Cl)CC4)n3)nc12`: the concentration for half-maximal inhibition (IC50) in assay [2] is greater than 2500 nM.

For `O=C(Nc1ccccc1Cl)N1CCC(c2nc(-c3ccc4ncccc4n3)no2)CC1`, the IC50 in assay [2] was greater than 2500 nM.

For `O=C(N1CCC(c2nc(-c3ccc4ccccc4n3)no2)CC1)N1CCCc2ccccc21`, the half-inhibitory concentration (IC50) in assay [1] came to 2300 nM; in assay [2] it was 670 nM.

For `CC(=O)N1CCC(NC(=O)N2CCC(c3nc(-c4ccc5ccccc5n4)no3)CC2)CC1`, the IC50 in assay [1] came to 500 nM; in assay [2] it was 2300 nM; in assay [3] it was 1300 nM.

As to `Cc1ccccc1NC(=O)N1CCC(c2nc(-c3ccc4ccccc4n3)no2)CC1`, the IC50 in assay [1] is 440 nM; in assay [2], 510 nM.

Regarding `O=C(Nc1cccc2cccnc12)N1CCC(c2nc(-c3ccc4ccccc4n3)no2)CC1`, the IC50 in assay [1] amounted to 1400 nM; in assay [2] it was 1300 nM.

For `O=C(Nc1ccccc1Cl)N1CCC(c2nc(-c3ccc4ccncc4n3)no2)CC1`, the half-maximal inhibitory concentration (IC50) in assay [2] is greater than 2500 nM.

In the case of `O=C(c1ccccc1Cl)N1CCC(c2nc(-c3ccc4ccccc4n3)no2)CC1`, the IC50 in assay [2] was greater than 2500 nM.

On to `Clc1ccccc1CN1CCC(c2nc(-c3ccc4ccccc4n3)no2)CC1`, for which the IC50 in assay [2] is greater than 2500 nM.

With `O=C(Nc1ccccc1Cl)N1CCC(c2nc(-c3ccccn3)no2)CC1`, the IC50 in assay [2] is greater than 2500 nM.

`CC1(c2nc(-c3ccc4ccccc4n3)no2)CCN(C(=O)Nc2ccccc2Cl)CC1`: the values for the IC50 in assay [1] and in assay [2] were 2500 nM and 6000 nM, respectively.

For `O=C(Nc1ccc(Cl)cc1)N1CCC(c2nc(-c3ccc4ccccc4n3)no2)CC1`, in assay [2], the IC50 was determined as 470 nM.

Regarding `CC1CN(C(=O)Nc2ccccc2Cl)CCC1c1nc(-c2ccc3ccccc3n2)no1` (mixture of isomers), the half-maximal inhibitory concentration (IC50) in assay [1] was 680 nM; in assay [2], 790 nM.

`O=C(Nc1ccccc1Cl)N1CCC(c2nc(-c3ccc4cnccc4n3)no2)CC1`: in assay [2], the concentration for half-maximal inhibition (IC50) was determined as 2200 nM.

As to `COc1ccccc1NC(=O)N1CCC(c2nc(-c3ccccc3)no2)CC1`, the IC50 in assay [2] was greater than 2500 nM.

In the case of `Cc1noc(C)c1NC(=O)N1CCC(c2nc(-c3ccc4ccccc4n3)no2)CC1`, the half-inhibitory concentration (IC50) in assay [1] was 3000 nM; in assay [2], 1500 nM.

`Cn1c(-c2noc(N3CCN(C(=O)NC4CCC(F)(F)CC4)CC3)n2)nc2ccccc21`: the IC50 in assay [2] came out at 7 nM; in assay [3], 25 nM.

As for `C[C@H]1C[C@H](c2nc(-c3ccc4ccccc4n3)no2)CCN1C(=O)Nc1ccccc1Cl`, the half-maximal inhibitory concentration (IC50) in assay [1] worked out at 900 nM; in assay [2], 640 nM.

For `O=C(Nc1ccccc1C(F)(F)F)N1CCC(c2nc(-c3ccc4ccccc4n3)no2)CC1`, the IC50 in assay [1] is 700 nM; in assay [2] it was 340 nM.

As to `O=C(NCC1CCC1)N1CCC(c2nc(-c3ccc4ccccc4n3)no2)CC1`, the IC50 came out at 410 nM in assay [1] and 750 nM in assay [2].

Consider `CS(=O)(=O)c1ccc(Cl)c(NC(=O)N2CCC(c3nc(-c4ccc5ccccc5n4)no3)CC2)c1`, for which the half-inhibitory concentration (IC50) in assay [2] is 1200 nM; in assay [3], greater than 2500 nM.

For `COc1ccccc1NC(=O)N1CCC(c2nc(-c3ccc4ccccc4c3)no2)CC1`, in assay [2], the IC50 amounted to 2200 nM.

On to `O=C(NC1CCCC1)N1CCC(c2nc(-c3ccc4ccccc4n3)no2)CC1`, for which the half-maximal inhibitory concentration (IC50) stood at 630 nM in assay [1] and 420 nM in assay [2].

Turning to `CCNC(=O)N1CCC(c2nc(-c3ccc4ccccc4n3)no2)CC1`, the concentration for half-maximal inhibition (IC50) in assay [2] was greater than 2500 nM.

Turning to `O=C(Nc1ccccc1Cl)N1CCC(c2nc(-c3nccc4ccccc34)no2)CC1`, in assay [2], the concentration for half-maximal inhibition (IC50) was greater than 2500 nM.

`COc1ccccc1NC(=O)N1CCC(c2nc(-c3cnc4ccccc4c3)no2)CC1`: the 50% inhibitory concentration (IC50) in assay [2] was 1900 nM.

Consider `COc1ccc2ccc(-c3noc(C4CCN(C(=O)Nc5ccccc5Cl)CC4)n3)nc2c1`, for which the 50% inhibitory concentration (IC50) in assay [2] and in assay [3] was greater than 2500 nM throughout.

`N#Cc1ccc(Cl)c(NC(=O)N2CCC(c3nc(-c4ccc5ccccc5n4)no3)CC2)c1`: the IC50 in assay [2] is 320 nM; in assay [3] it was greater than 2500 nM.

Take `O=C(Nc1ccccc1Cl)N1CCC(c2nc(-c3cnc4ccccc4c3)no2)CC1`: the 50% inhibitory concentration (IC50) in assay [2] is greater than 2500 nM.

Consider `CN1CCC(NC(=O)N2CCC(c3nc(-c4ccc5ccccc5n4)no3)CC2)CC1`, for which the IC50 in assay [1] is 3200 nM; in assay [2], 3400 nM.

Regarding `COc1cc2ccccc2nc1-c1noc(C2CCN(C(=O)Nc3ccccc3Cl)CC2)n1`, the IC50 in assay [2] and in assay [3] was greater than 2500 nM throughout.

For the molecule `O=C(NC1CCC(F)(F)CC1)N1CCC(c2nc(-c3ccc4ccccc4n3)no2)CC1`, the IC50 stood at 480 nM in assay [2] and 1500 nM in assay [3].

As for `O=C(Nc1ccccc1Cl)N1CCC(F)(c2nc(-c3ccc4ccccc4n3)no2)CC1`, the values for the IC50 in assay [1] and in assay [2] were 1300 nM and 1000 nM, respectively.

Turning to `COc1ccccc1NC(=O)N1CCC(c2noc(-c3ccc4ccccc4n3)n2)CC1`, the IC50 in assay [1] was found to be 2400 nM; in assay [2] it was 15000 nM.

For the molecule `c1ccc2nc(-c3noc(C4CCN(CC5CCCCC5)CC4)n3)ccc2c1`, the IC50 in assay [2] was greater than 2500 nM.

Take `COc1ccccc1N(C)C(=O)N1CCC(c2nc(-c3ccc4ccccc4n3)no2)CC1`: the results for the IC50 in assay [1] and in assay [2] were 3100 nM and 1400 nM, respectively.

As to `COc1ccccc1NC(=O)N1CCC(c2nc(-c3ccncc3)no2)CC1`, in assay [2], the half-inhibitory concentration (IC50) was greater than 2500 nM.

With `COc1ccccc1NC(=O)N1CCC(c2nc(-c3nccc4ccccc34)no2)CC1`, the half-maximal inhibitory concentration (IC50) in assay [2] is greater than 2500 nM.

`COc1cccc(NC(=O)N2CCC(c3nc(-c4ccc5ccccc5n4)no3)CC2)c1`: the IC50 came out at 410 nM in assay [1] and 220 nM in assay [2].

`O=C(Nc1ccccc1Cl)N1CCC(c2nc(-c3ccccc3)no2)CC1`: in assay [2], the IC50 was greater than 2500 nM.

Consider `O=C(OCc1ccccc1)N1CCC(c2nc(-c3ccc4ccccc4n3)no2)CC1`, for which the IC50 in assay [1] and in assay [2] was greater than 2500 nM throughout.

`COc1ccccc1OC(=O)N1CCC(c2nc(-c3ccc4ccccc4n3)no2)CC1`: the 50% inhibitory concentration (IC50) was 250 nM in assay [1] and 110 nM in assay [2].

Regarding `COc1ccccc1NC(=O)N1CCC(c2nc(-c3ccccc3C)no2)CC1`, in assay [2], the 50% inhibitory concentration (IC50) is greater than 2500 nM.

`COc1ccccc1NC(=O)N1CCC(c2nc(-c3ccccn3)no2)CC1`: in assay [2], the IC50 was greater than 2500 nM.

As to `O=C(NC1CCOCC1)N1CCC(c2nc(-c3ccc4ccccc4n3)no2)CC1`, the IC50 worked out at 480 nM in assay [1], 1700 nM in assay [2] and 8600 nM in assay [3].

Regarding `C[C@@H]1C[C@H](c2nc(-c3ccc4ccccc4n3)no2)CCN1C(=O)Nc1ccccc1Cl`, the half-maximal inhibitory concentration (IC50) came to 2400 nM in assay [1] and 620 nM in assay [2].

`O=C(Nc1ccccc1Cl)N1CCC(c2nc(-c3ncc4ccccc4n3)no2)CC1`: in assay [2], the IC50 is greater than 2500 nM.

`O=C(NC1CCNCC1)N1CCC(c2nc(-c3ccc4ccccc4n3)no2)CC1`: the values for the IC50 in assay [1], in assay [2] and in assay [3] were 2500 nM, 2900 nM and 3700 nM, respectively.

For `COc1cc(-c2noc(C3CCN(C(=O)Nc4ccccc4Cl)CC3)n2)nc2ccccc12`, the IC50 in assay [2] and in assay [3] was greater than 2500 nM in each case.

Regarding `O=C(Nc1ccccc1Cl)N1CCC(c2nc(-c3cnccn3)no2)CC1`, the IC50 in assay [2] is greater than 2500 nM.

`O=C(Nc1ccccc1Cl)N1CCC(c2nc(-c3cccnc3)no2)CC1`: the IC50 in assay [2] is greater than 2500 nM.

As to `Cn1c(-c2noc(C3CCN(C(=O)NC4CCS(=O)(=O)CC4)CC3)n2)nc2ccccc21`, the results for the IC50 in assay [1], in assay [2] and in assay [3] were 350 nM, 690 nM and 760 nM, respectively.

In the case of `O=C(Nc1ccccc1Cl)N1CCC(O)(c2nc(-c3ccc4ccccc4n3)no2)CC1`, the half-maximal inhibitory concentration (IC50) in assay [1] was found to be 1300 nM; in assay [2], 2100 nM.
